{
  "source": "patent US10328130B2",
  "about": "“Modified hyaluronidases and uses in treating hyaluronan-associated diseases and conditions” (Halozyme, Inc., priority 2008, dated 2019)",
  "key": {"PC-3M-luc-C6 cells": {"test_system": "PC-3M-luc-C6 cells", "experiment": "PC-3M-luc-C6 bone metastasis model: survival and bioluminescent imaging", "format": "in vivo, mouse", "details": "for % survival: day 49", "experimental": "Due to the bioluminescence of the PC-3M-luc-C6 cells, in addition to monitoring the survival of the mice, the mice were imaged to visualize the PC-3M-luc-C6 metastases. Briefly, 7-10 week old nu/nu male mice (Charles River Laboratories) were anesthetized and injected with 3×10^6 PC-3M-luc-C6 cells (a bioluminescent human prostate carcinoma cell line) suspended in 50 μL sterile DPBS by intracardial injection on day 0. Mice were injected into the left ventricle of the heart by non-surgical means to increase the potential for metastasis from PC-3M-luc-C6 cells. The intracardiac injection of tumor cells bypasses the lungs and serves as a method to disperse cells into general circulation in order to allow seeding of metastasis in multiple tissues within an animal. A satisfactory injection into the left ventricle was detectable within minutes by bioluminescent imaging (BLI) and was identified by an immediate but transient systemic bioluminescence over the entire animal, as indicated by complete blue signal BLI of mice. An unsuccessful implantation produced a more localized signal generally isolated and sustained over time solely within the thoracic region of the animal. […] Mice with successful intra-cardiac injection of PC-3Mluc-C6 cells on day 0 (n=10−13 mice/Grp) were imaged twice a week for up to four weeks and subsequently followed up for survival till day 49 and beyond that time point.\nOn day 14, the mice were subjected to one of several treatment regimens. A set of control mice was administered API buffer (10 mM Hepes and 130 mM NaCl, pH 7.0) only on days 14, 16, 18, 21, 23, 25, 28, 30, and 32.\nThe in vivo bioluminescent signal from the jaw region of mice corresponds to micrometastases in the dental pulp, mandible or cervical lymph nodes. Lower limb in vivo signals corresponded to metastatic lesions identified in the tibia or femur leg bones. The thoracic signals that are observed in vivo are associated with residual tumor cells that had seeded into the heart, lung or the pleural surface of the chest cavity. Mice with images indicating a successful systemic injection on day 0 and showing in vivo evidence of metastasis by day 29 were included in the analysis of the treatment groups."}, "[1]": {"test_system": "PC3 prostate cancer xenograft tumor"}, "[2]": {"details": "PEGylated rHuPH20 10,000 U/mouse and/or Taxotere 10 mg/kg (admixed) IV"}, "[3]": {"details": "Taxotere 30 mg/kg IV days 14 and 21"}, "[4]": {"details": "PEGylated rHuPH20 10,000 U/mouse and/or docetaxel 10 mg/kg IV"}},
  "note": "Where two headings read alike, the source gives them in different places.",
  "data": [
    {"compound": "CC(=O)O[C@@]12CO[C@@H]1C[C@H](O)[C@@]1(C)C(=O)[C@H](O)C3=C(C)[C@@H](OC(=O)[C@H](O)[C@@H](NC(=O)OC(C)(C)C)c4ccccc4)C[C@@](O)([C@@H](OC(=O)c4ccccc4)[C@H]21)C3(C)C", "note": "[Taxotere ® (docetaxel), docetaxel]", "values": [
      {"measurement": "No. of animals alive at day 49", "setting": "PC-3M-luc-C6 cells; [2]", "value": 9},
      {"measurement": "surviving animals at day 29", "setting": "PC-3M-luc-C6 cells; Taxotere 10 mg/kg or PEGylated rHuPH20 10,000 U/mouse alone", "value": "9 out of 12"},
      {"measurement": "No. of animals alive at day 49", "setting": "PC-3M-luc-C6 cells; [3]", "value": 10},
      {"measurement": "mice remaining alive at Day 29", "setting": "PC-3M-luc-C6 cells; [3]", "value": "10 out of 11"},
      {"measurement": "% survival", "setting": "PC-3M-luc-C6 cells; [2]", "value": 75.00, "unit": "%"},
      {"measurement": "% survival", "setting": "PC-3M-luc-C6 cells; [3]", "value": 90.91, "unit": "%"},
      {"measurement": "Average Survival Time (to 1500 mm^3 tumor volume)", "setting": "[1]; [4]", "value": "38.96 ± 7.07"},
      {"measurement": "MST (Median Survival Time to 1500 mm^3 tumor volume)", "setting": "[1]; [4]", "value": 32.9, "unit": "days"},
      {"measurement": "Tumor volume", "setting": "[1]; day 4, PEGylated rHuPH20 10,000 U/mouse and/or docetaxel 10 mg/kg IV", "value": 687.27, "unit": "mm3"},
      {"measurement": "Tumor volume", "setting": "[1]; day 4, docetaxel 30 mg/kg IV", "value": 497.04, "unit": "mm3"},
      {"measurement": "Tumor volume", "setting": "[1]; day 13, PEGylated rHuPH20 10,000 U/mouse and/or docetaxel 10 mg/kg IV", "value": 869.25, "unit": "mm3"},
      {"measurement": "Tumor volume", "setting": "[1]; day 13, docetaxel 30 mg/kg IV", "value": 401.12, "unit": "mm3"},
      {"measurement": "Tumor volume", "setting": "[1]; day 21, PEGylated rHuPH20 10,000 U/mouse and/or docetaxel 10 mg/kg IV", "value": 1011.1, "unit": "mm3"},
      {"measurement": "Tumor volume", "setting": "[1]; day 21, docetaxel 30 mg/kg IV", "value": 409.02, "unit": "mm3"},
      {"measurement": "Tumor volume", "setting": "[1]; day 27, PEGylated rHuPH20 10,000 U/mouse and/or docetaxel 10 mg/kg IV", "value": 1260.7, "unit": "mm3"},
      {"measurement": "Tumor volume", "setting": "[1]; day 27, docetaxel 30 mg/kg IV", "value": 291.65, "unit": "mm3"},
      {"measurement": "Tumor volume", "setting": "[1]; day 35, PEGylated rHuPH20 10,000 U/mouse and/or docetaxel 10 mg/kg IV", "value": 1441.1, "unit": "mm3"},
      {"measurement": "Tumor volume", "setting": "[1]; day 35, docetaxel 30 mg/kg IV", "value": 213.73, "unit": "mm3"},
      {"measurement": "Tumor volume", "setting": "[1]; day 42, PEGylated rHuPH20 10,000 U/mouse and/or docetaxel 10 mg/kg IV", "value": 1552.1, "unit": "mm3"},
      {"measurement": "Tumor volume", "setting": "[1]; day 42, docetaxel 30 mg/kg IV", "value": 147.05, "unit": "mm3"},
      {"measurement": "Tumor volume", "setting": "[1]; day 50, docetaxel 30 mg/kg IV", "value": 130.2, "unit": "mm3"},
      {"measurement": "Tumor volume", "setting": "[1]; day 61, docetaxel 30 mg/kg IV", "value": 343.03, "unit": "mm3"},
      {"measurement": "Tumor volume", "setting": "[1]; day 73, docetaxel 30 mg/kg IV", "value": 865.5, "unit": "mm3"},
      {"measurement": "Tumor volume", "setting": "[1]; day −1 (before treatment), PEGylated rHuPH20 10,000 U/mouse and/or docetaxel 10 mg/kg IV", "value": 470.39, "unit": "mm3"},
      {"measurement": "Tumor volume", "setting": "[1]; day −1 (before treatment), docetaxel 30 mg/kg IV", "value": 471.34, "unit": "mm3"},
      {"measurement": "% ILS", "setting": "[1]; increase in life span vs API buffer control, PEGylated rHuPH20 10,000 U/mouse and/or docetaxel 10 mg/kg", "value": 59, "unit": "%"},
      {"measurement": "% T/C", "setting": "[1]; median survival time vs API buffer control, PEGylated rHuPH20 10,000 U/mouse and/or docetaxel 10 mg/kg", "value": 157, "unit": "%"}
    ]}
  ]
}
